Assay results as given in paper PMC12471299, “Secondary Metabolites of the Marine Sponge-Derived Fungus Aspergillus subramanianii 1901NT-1.40.2 and Their Antimicrobial and Anticancer Activities” (Marine Drugs, 2025).
In brackets after ≈: the same amount, converted by molar mass. Read-outs that look alike come from different tables or passages of the source.

What was measured:
[1] = tested on: Escherichia coli VKPM (B-7935); test: Antimicrobial assay, growth inhibition (optical density); assay type: cell-based; settings: for MIC50: Escherichia coli, 18 h, E. coli
Experimental: (§1) The Gram-positive bacterial Staphylococcus aureus ATCC 21027, Gram-negative bacterial Escherichia coli VKPM (B-7935), and yeast-like fungal Candida albicans KMM 455 strains were fermented on solid medium Mueller Hinton broth with agar (16.0 g/L) in a Petri dish at 37 °C for 24 h. The antimicrobial activity of the compound was tested at concentrations ranging from 100 µM and lower. The effect of the compound on bacterial growth was estimated as described by. Gentamicin and amphotericin B were used as positive controls against S. aureus, E. coli, and C. albicans, and a 1% dimethyl sulfoxide (DMSO) solution in PBS was used as a negative control. The optical density of the bacterial suspension after 18 h was measured at λ = 620 nm. The effect of the compound on biofilm formation for 18 h was tested using MTT reagent (Sigma-Aldrich, St. Louis, MO, USA) in accordance with. The optical density of the obtained solution was measured at λ = 570 nm. A Multiskan FS spectrophotometer (Thermo Scientific Inc., Beverly, MA, USA) was used for both assays. The results were calculated as percentages of the control data and presented as minimal concentrations reduced by 50% of growth or biofilm formation (MIC50).

[2] = tested on: Staphylococcus aureus ATCC 21027; test: as above; assay type: cell-based; settings: for MIC50: Staphylococcus aureus, ATCC21027, 18 h, S. aureus, 18 h
Experimental: as §1

Candida albicans KMM 455 [3] = test: as above; assay type: cell-based
Experimental: as §1

[4] = tested on: Escherichia coli VKPM (B-7935); test: Biofilm formation assay (MTT); assay type: cell-based; settings: for Biofilm formation, MIC50: E. coli, 18 h
Experimental: as §1

[5] = tested on: Staphylococcus aureus ATCC 21027; test: Biofilm formation assay (MTT); assay type: cell-based; settings: for Biofilm formation, MIC50: S. aureus, 18 h
Experimental: as §1

Candida albicans KMM 455 [6] = test: Biofilm formation assay (MTT); assay type: cell-based
Experimental: as §1

[7] = Cell viability assay (MTT); assay type: cell-based, human; settings: human, read-out: Cytotoxicity IC50
Text: (§2) Rat cardiomyocyte H9c2 cells were kindly provided by Prof. Dr. Gunhild von Amsberg from the Martini-Klinik Prostate Cancer Center, University Hospital Hamburg-Eppendorf, Hamburg, Germany. The human HaCaT keratinocyte cell line was kindly provided by Prof. N. Fusenig (Cancer Research Centre, Heidelberg, Germany). Non-cancerous human breast epithelial MCF-10A cells were kindly provided by Dr. Irina Zhitnyak (N. N. Blokhin National Medical Research Center of Oncology, Moscow, Russia). Human breast cancer MCF-7 HTB-22 and MDA-MB-231 cells were obtained from the ATTC (Manassas, VA, USA).
(§3) H9c2 and HaCaT cells were cultured in DMEM with 10% fetal bovine serum and 1% penicillin/streptomycin (BioloT, St. Petersburg, Russia). MCF-7 and MDA-MB-231 cells were cultured in MEM (BioloT, St. Petersburg, Russia) with 10% fetal bovine serum (FBS) and 1% penicillin/streptomycin (BioloT, St. Petersburg, Russia). MCF 10A cells were cultured in DMEM F12 medium (BioloT, St. Petersburg, Russia) supplemented with 20% FBS, 20 ng/mL hrEGF (Sci-Store, Moscow, Russia), and 1% penicillin/streptomycin (BioloT, St. Petersburg, Russia). All cells were cultured at 37 °C in a humidified atmosphere containing 5% CO2.
(§4) H9c2 cells were seeded at a concentration of 3 × 10^3 cells/well. MCF-10A, MCF-7, and MDA-MB-231 cells were seeded at 5 × 10^3 cells/well, and HaCaT cells were seeded at 1 × 10^4 cells/well. The experiments were initiated after 24 h.
(§5) Compounds at concentrations up to 100 µM were added to the wells for 24h or 48 h, and the viability of the cells was measured using an MTT (3-(4,5-dimethylthiazol-2-yl)-2,5-diphenyltetrazolium bromide) assay, which was performed according to the manufacturer’s instructions (Sigma-Aldrich, Munich, Germany). […] DMSO was used as a control. The results are presented as percentages of the control data.

HaCaT keratinocytes = test: Cell viability assay (MTT); assay type: cell-based, human
Text: as §2, §3, §4, §5

[8] = tested on: MDA-MB-231 breast cancer cells; test: Cell viability assay (MTT); assay type: cell-based, human
Text: as §2, §3, §4, §5

[9] = tested on: MCF-10A breast epithelial cells; test: Cell viability assay (MTT); assay type: cell-based, human; settings: MCF10A
Text: as §2, §3, §4, §5

[10] = tested on: MCF-7 breast cancer cells; test: Cell viability assay (MTT); assay type: cell-based, human
Text: as §2, §3, §4, §5

[11] = Cell viability assay (MTT); assay type: cell-based, rat; settings: rat, H9c2 cardiomyocytes, read-out: Cytotoxicity IC50
Text: as §2, §3, §4, §5

H9c2 cardiomyocytes = test: Cell viability assay (MTT); assay type: cell-based, rat
Text: as §2, §3, §4, §5

For `Cc1c(C)c(O)c2c(c1C)C(C)C(=O)OC2=O` (centres unmarked) [Compound 4, sclerin], the MIC50 [1] was > 100 µM, the “effect on E. coli growth” value ([1]; at / up to 100 µM) was “did not affect” and the MIC50 [2] was > 100 µM. The “effect on S. aureus growth” value ([2]; at / up to 100 µM) was “did not affect”, the MIC50 (Candida albicans KMM 455 [3]; Candida albicans, KMM455, 18 h, C. albicans, 18 h) was > 100 µM and the “effect on C. albicans growth” value (Candida albicans KMM 455 [3]; at / up to 100 µM) was “did not affect”. The “Biofilm formation, MIC50” value [4] was >100 µM, the “effect on E. coli biofilm formation” value ([4]; at / up to 100 µM) was “did not affect” and the “Biofilm formation, MIC50” value [5] was >100 µM. The “effect on S. aureus biofilm formation” value ([5]; at / up to 100 µM) was “did not affect”, the “Biofilm formation, MIC50” value (Candida albicans KMM 455 [6]; C. albicans, 18 h) was >100 µM and the “prevention of C. albicans biofilm formation” value (Candida albicans KMM 455 [6]; at 100 µM) was 20.22 ± 5.24%. For the same molecule, the IC50 at 24 h ([7]; HaCaT keratinocytes, 24 h) was ≥ 100 µM, the IC50 at 48 h ([7]; HaCaT keratinocytes, 48 h) was ≥ 100 µM and the IC50 at 24 h ([7]; MCF-7 breast cancer cells, MCF-7, 24 h) was > 100 µM. For the same molecule, the IC50 at 48 h ([7]; MCF-7 breast cancer cells, MCF-7, 48 h) was > 100 µM, the IC50 at 24 h ([7]; MCF-10A breast epithelial cells, MCF10A, 24 h) was 93.4 ± 3.5 µM and the IC50 at 48 h ([7]; MCF-10A breast epithelial cells, MCF10A, 48 h) was > 100 µM. The IC50 at 24 h ([7]; MDA-MB-231 breast cancer cells, MDA-MB-231, 24 h) was > 100 µM, the IC50 at 48 h ([7]; MDA-MB-231 breast cancer cells, MDA-MB-231, 48 h) was 94.1 ± 3.2 µM and the cell viability (HaCaT keratinocytes; 24 h, 1.0 µM) was 100.2 ± 6.6 % of control. For the same molecule, the cell viability (HaCaT keratinocytes; 24 h, 10.0 µM) was 94.7 ± 5.0 % of control, the cell viability (HaCaT keratinocytes; 24 h, 100.0 µM) was 49.5 ± 6.0 % of control and the cell viability (HaCaT keratinocytes; 48 h, 1.0 µM) was 96.4 ± 1.4 % of control. For the same molecule, the cell viability (HaCaT keratinocytes; 48 h, 10.0 µM) was 72.1 ± 11.1 % of control, the cell viability (HaCaT keratinocytes; 48 h, 100.0 µM) was 51.5 ± 2.1 % of control and the cell viability ([8]; MDA-MB-231, 24 h, 1.0 µM) was 94.8 ± 4.2 % of control. For the same molecule, the cell viability ([8]; MDA-MB-231, 24 h, 10.0 µM) was 102.7 ± 4.9 % of control, the cell viability ([8]; MDA-MB-231, 24 h, 100.0 µM) was 63.1 ±1.6 % of control and the cell viability ([8]; MDA-MB-231, 48 h, 1.0 µM) was 94.3 ± 3.9 % of control. For the same molecule, the cell viability ([8]; MDA-MB-231, 48 h, 10.0 µM) was 91.8 ± 7.5 % of control, the cell viability ([8]; MDA-MB-231, 48 h, 100.0 µM) was 47.1 ± 6.2 % of control and the cell viability ([9]; 24 h, 1.0 µM) was 90.8 ± 7.8 % of control. The cell viability ([9]; 24 h, 10.0 µM) was 88.6 ± 5.2 % of control, the cell viability ([9]; 24 h, 100.0 µM) was 47.0 ± 3.2 % of control and the cell viability ([9]; 48 h, 1.0 µM) was 98.0 ± 4.0 % of control. For the same molecule, the cell viability ([9]; 48 h, 10.0 µM) was 96.8 ± 2.1 % of control, the cell viability ([9]; 48 h, 100.0 µM) was 73.5 ± 1.1 % of control and the cell viability ([10]; MCF-7, 24 h, 1.0 µM) was 104.3 ± 4.6 % of control. For the same molecule, the cell viability ([10]; MCF-7, 24 h, 10.0 µM) was 103.4 ± 5.4 % of control, the cell viability ([10]; MCF-7, 24 h, 100.0 µM) was 68.3 ± 4.5 % of control and the cell viability ([10]; MCF-7, 48 h, 1.0 µM) was 88.5 ± 4.7 % of control. For the same molecule, the cell viability ([10]; MCF-7, 48 h, 10.0 µM) was 95.9 ± 3.5 % of control, the cell viability ([10]; MCF-7, 48 h, 100.0 µM) was 74.1 ± 4.5 % of control and the IC50 at 24 h ([11]; H9c2, 24 h) was > 100 µM. For the same molecule, the IC50 at 48 h ([11]; H9c2, 48 h) was 57.2 ± 2.4 µM, the cell viability (H9c2 cardiomyocytes; H9c2, 24 h, 1.0 µM) was 101.9 ± 5.8 % of control and the cell viability (H9c2 cardiomyocytes; H9c2, 24 h, 10.0 µM) was 101.9 ± 6.1 % of control. For the same molecule, the cell viability (H9c2 cardiomyocytes; H9c2, 24 h, 100.0 µM) was 73.5 ± 4.4 % of control, the cell viability (H9c2 cardiomyocytes; H9c2, 48 h, 1.0 µM) was 101.4 ± 5.6 % of control and the cell viability (H9c2 cardiomyocytes; H9c2, 48 h, 10.0 µM) was 102.6 ± 7.4 % of control. The cell viability (H9c2 cardiomyocytes; H9c2, 48 h, 100.0 µM) was 56.2 ± 0.9 % of control.

In the case of `CNC(C)C1CCC(N)C(OC2C(N)CC(N)C(OC3OCC(C)(O)C(NC)C3O)C2O)O1` (centres unmarked) [Gentamycin, reference compound], the MIC50 [1] is reported as 5.03 ± 0.77 µM (≈ 2.4 µg/mL), the MIC50 [2] is reported as 4.52 ± 0.98 µM (≈ 2.16 µg/mL) and the “Biofilm formation, MIC50” value [4] is reported as 5.34 ± 0.50 µM. For the same molecule, the “Biofilm formation, MIC50” value [5] was 4.34 ± 0.32 µM.
